We go through 42 molecules from patent publication US5198564A, “Cis-platinum-diamine complexes and antitumorous compositions containing them, and process for their preparation” (Beijing Polytechnic University, priority 1987, dated 1993).

The conditions of series [1]: water.
For series [2], the system named is L1210 mouse leukemia cells. As to the kind of experiment: Effect in prolonging the life of mouse with cancer (L1210), Test Example 1. The format is in vivo, DBA/2 mice. Conditions: i.p. once, 30 days observation. As to the method: To DBA/2 mice, L1210 mouse leukemia cells were inoculated into the abdominal cavity of each mouse used in the test. The test drugs were intraperitoneally administered once (e.g. after 24 hours of inoculation). […] The ratio (T/C %) of the survival time of a treated group (administered with a certain drug) to the survival time of a control group (administered with only physiological saline) was obtained and is shown in table VI with the average number of survival days for mice of the control group being evaluated as 100. The test drugs were aqueous suspensions obtained by adding small amounts of surfactants (e.g. tween-80) to the less soluble test compounds in water.

The test system of the next series is S180 sarcoma cells. Kind of series: Effect in prolonging the life of mouse with cancer (S180), Test Example 2. Conditions: i.p. once, 30 days observation. Format: in vivo, DBA/2 mice. As for the experimental part: To DBA/2 mice, S180 sarcoma cells were intraperitoneally inoculated with approximately 1×10^6 cells/mouse. The test drugs were intraperitoneally administered once (e.g. after 24 hours of inoculation). […] The ratio (T/C %) of survival time of test and control animals was obtained and is shown in table V with the average number of survival days for mice of the control group to which a physiological saline was administered being evaluated as 100. The test drugs were aqueous suspensions obtained by adding small amount of surfactants (e.g. tween-80) to the less soluble test compounds in water.

Series [3] has as its system Sarcoma 180 and Leukemia L1210. Conditions: reported in 1969; cited from earlier work.
The mark [4] stands for this setting: L1210 S180 printed, one value only, 8 mg/kg.

Consider `N[C@@H]1COCO[C@@H]1c1ccccc1.N[C@@H]1COCO[C@@H]1c1ccccc1.[I][Pt][I]`, for which the Solubility – broadly, the concentration that dissolves in the medium under given conditions – in series [1] was determined as 20 µg/mL.

`N[C@@H]1COCO[C@@H]1c1ccccc1.N[C@@H]1COCO[C@@H]1c1ccccc1.[Cl][Pt][Cl]`: the Solubility in series [1] came out at 60 µg/mL.

In series [1], `NCc1ccc(O)cc1.NCc1ccc(O)cc1.[I][Pt][I]` yielded a Solubility of 800 µg/mL.

`NCc1ccc(O)cc1.NCc1ccc(O)cc1.[Cl][Pt][Cl]` came in with a Solubility in series [1] of 1500 µg/mL.

Take `NCc1ccccc1CN.[I][Pt][I]`: in series [1], the Solubility was 10 µg/mL.

For `NCc1ccccc1CN.[Cl][Pt][Cl]`, in series [1], the Solubility was 20 µg/mL.

With `NCc1cc(C(=O)O)c(C(=O)O)cc1CN.[I][Pt][I]`, in series [1], the Solubility was 1100 µg/mL.

For the molecule `NCc1cc(C(=O)O)c(C(=O)O)cc1CN.[Cl][Pt][Cl]`, the Solubility in series [1] amounted to 2400 µg/mL.

For `NCc1ccc(Cl)cc1.NCc1ccc(Cl)cc1.[I][Pt][I]`, the “T/C (%) of ST (ratio of survival time of test and control animals)” value in series [2] (L1210, 10 mg/kg) is reported as over 182%; with S180 sarcoma cells (10 mg/kg), over 140%.

With `NCc1ccccc1.NCc1ccccc1.[I][Pt][I]`, the “T/C (%) of ST (ratio of survival time of test and control animals)” value in series [2] (setting [4]) is reported as over 201%.

Take `NCc1ccccc1.NCc1ccccc1.[Cl][Pt][Cl]`: the “T/C (%) of ST (ratio of survival time of test and control animals)” value in series [2] (setting [4]) was over 201%.

For the molecule `NCc1ccccc1Br.NCc1ccccc1Br.[I][Pt][I]`, the “T/C (%) of ST (ratio of survival time of test and control animals)” value in series [2] (L1210, 10 mg/kg) is given as over 175%; with S180 sarcoma cells (10 mg/kg) it was over 180%.

As to `NCc1ccccc1Br.NCc1ccccc1Br.[Cl][Pt][Cl]`, the “T/C (%) of ST (ratio of survival time of test and control animals)” value in series [2] (L1210, 10 mg/kg) was over 180%; with S180 sarcoma cells (10 mg/kg), over 184%.

Turning to `NCc1ccc(Br)cc1.NCc1ccc(Br)cc1.[I][Pt][I]`, the “T/C (%) of ST (ratio of survival time of test and control animals)” value is on record as over 150% in series [2] (L1210, 17.5 mg/kg) and over 158% in the series on S180 sarcoma cells (17.5 mg/kg).

As to `NCc1ccc(Br)cc1.NCc1ccc(Br)cc1.[Cl][Pt][Cl]`, the “T/C (%) of ST (ratio of survival time of test and control animals)” value is over 205% in series [2] (L1210, 12 mg/kg) and over 198% in the series with S180 sarcoma cells (12 mg/kg).

Turning to `NCc1ccc(F)cc1.NCc1ccc(F)cc1.[I][Pt][I]` [I 11], the “T/C (%) of ST (ratio of survival time of test and control animals)” value is over 161% in series [2] (L1210, 13.5 mg/kg) and over 184% in the series on S180 sarcoma cells (13.5 mg/kg).

As for `NCc1ccc(F)cc1.NCc1ccc(F)cc1.[Cl][Pt][Cl]` [I 12], the “T/C (%) of ST (ratio of survival time of test and control animals)” value in series [2] (L1210, 13.5 mg/kg) is reported as over 177%; with S180 sarcoma cells (13.5 mg/kg) it was over 175%.

Regarding `NCc1ccc(Cl)c(O)c1.NCc1ccc(Cl)c(O)c1.[I][Pt][I]` [I 20], the “T/C (%) of ST (ratio of survival time of test and control animals)” value in series [2] (L1210, 15 mg/kg) is over 212%; in the series with S180 sarcoma cells (15 mg/kg), over 227%.

As for `NCc1ccc(Cl)c(O)c1.NCc1ccc(Cl)c(O)c1.[Cl][Pt][Cl]` [I 21], the “T/C (%) of ST (ratio of survival time of test and control animals)” value in series [2] (L1210, 15 mg/kg) is reported as over 238%; in the series with S180 sarcoma cells (15 mg/kg), over 251%.

In the case of `C[C@@H](N)c1ccccc1.C[C@@H](N)c1ccccc1.[I][Pt][I]` [I 28], the “T/C (%) of ST (ratio of survival time of test and control animals)” value in series [2] (L1210, 17.5 mg/kg) is over 220%; with S180 sarcoma cells (17.5 mg/kg) it was over 215%.

With `C[C@@H](N)c1ccccc1.C[C@@H](N)c1ccccc1.[Cl][Pt][Cl]` [I 29], the “T/C (%) of ST (ratio of survival time of test and control animals)” value in series [2] (L1210, 17.5 mg/kg) is listed as over 246%; in the series with S180 sarcoma cells (17.5 mg/kg), over 250%.

With `C[C@H](N)c1ccccc1.C[C@H](N)c1ccccc1.[I][Pt][I]` [I 30], the “T/C (%) of ST (ratio of survival time of test and control animals)” value in series [2] (L1210, 17.5 mg/kg) was over 226%; with S180 sarcoma cells (17.5 mg/kg) it was over 230%.

For `C[C@H](N)c1ccccc1.C[C@H](N)c1ccccc1.[Cl][Pt][Cl]` [I 31], the “T/C (%) of ST (ratio of survival time of test and control animals)” value is over 260% in series [2] (L1210, 17.5 mg/kg) and over 245% in the series on S180 sarcoma cells (17.5 mg/kg).

In the case of `NCc1ccc(C(=O)O)cc1.NCc1ccc(C(=O)O)cc1.[I][Pt][I]` [I 36], the “T/C (%) of ST (ratio of survival time of test and control animals)” value was over 243% in series [2] (L1210, 10 mg/kg) and over 230% in the series on S180 sarcoma cells (10 mg/kg).

`NCc1ccc(C(=O)O)cc1.NCc1ccc(C(=O)O)cc1.[Cl][Pt][Cl]` [I 37]: the “T/C (%) of ST (ratio of survival time of test and control animals)” value in series [2] (L1210, 10 mg/kg) is over 250%; in the series on S180 sarcoma cells (10 mg/kg) it was over 255%.

`NCc1ccco1.NCc1ccco1.[I][Pt][I]` [I 42]: the “T/C (%) of ST (ratio of survival time of test and control animals)” value in series [2] (L1210, 17.5 mg/kg) is reported as over 200%; in the series on S180 sarcoma cells (17.5 mg/kg) it was over 200%.

For the molecule `NCc1ccco1.NCc1ccco1.[Cl][Pt][Cl]` [I 43], the “T/C (%) of ST (ratio of survival time of test and control animals)” value in series [2] (L1210, 12 mg/kg) is on record as over 225%; with S180 sarcoma cells (12 mg/kg) it was over 230%.

Take `NCc1ccc(CO)o1.NCc1ccc(CO)o1.[I][Pt][I]` [I 44]: the “T/C (%) of ST (ratio of survival time of test and control animals)” value in series [2] (L1210, 17.5 mg/kg) is given as over 215%; in the series with S180 sarcoma cells (17.5 mg/kg), over 220%.

For `NCc1ccc(CO)o1.NCc1ccc(CO)o1.[Cl][Pt][Cl]` [I 45], the “T/C (%) of ST (ratio of survival time of test and control animals)” value in series [2] (L1210, 12 mg/kg) was over 226%; in the series on S180 sarcoma cells (12 mg/kg) it was over 218%.

As for `N.N.[Cl][Pt][Cl]` [PDD, Cis-platinum (II) diamine dichloride], the anticancer activity entry in series [3] is “strong anticancer activity against Sarcoma 180 and Leukemia L1210”.

`NCc1ccc(Cl)cc1.NCc1ccc(Cl)cc1.O=C([O-])C1(C(=O)[O-])CCC1.[Pt+2]` [V/7]: the “T/C (%) of ST (ratio of survival time of test and control animals)” value in series [2] (L1210, 10 mg/kg) was over 210%; in the series on S180 sarcoma cells (10 mg/kg), over 202%.

`NCc1ccc(Cl)cc1.NCc1ccc(Cl)cc1.[Cl][Pt][Cl]` [drawing 204] yielded a Solubility in series [1] of 10 µg/mL.

For `NCc1ccc(Cl)c(O)c1.NCc1ccc(Cl)c(O)c1.[I][Pt][I]` [drawing 209], in series [1], the Solubility worked out at 400 µg/mL.

In the case of `NCc1ccc(Cl)c(O)c1.NCc1ccc(Cl)c(O)c1.[Cl][Pt][Cl]` [drawing 210], the Solubility in series [1] worked out at 900 µg/mL.

Regarding `NCc1ccc(C(=O)O)cc1.NCc1ccc(C(=O)O)cc1.[I][Pt][I]` [drawing 211], the Solubility in series [1] amounted to 1000 µg/mL.

Regarding `NCc1ccc(C(=O)O)cc1.NCc1ccc(C(=O)O)cc1.[Cl][Pt][Cl]` [drawing 212], the Solubility in series [1] came to 2200 µg/mL.

`NCc1ccco1.NCc1ccco1.[I][Pt][I]` [drawing 213] displayed a Solubility in series [1] of 60 µg/mL.

In series [1], `NCc1ccco1.NCc1ccco1.[Cl][Pt][Cl]` [drawing 214] yielded a Solubility of 160 µg/mL.

In series [1], `NCc1ccc(CO)o1.NCc1ccc(CO)o1.[I][Pt][I]` [drawing 215] registered a Solubility of 200 µg/mL.

In series [1], `NCc1ccc(CO)o1.NCc1ccc(CO)o1.[Cl][Pt][Cl]` [drawing 216] registered a Solubility of 1100 µg/mL.

In the case of `NCc1ccc(Cl)cc1.NCc1ccc(Cl)cc1.[Cl][Pt][Cl]` [drawing 224], the “T/C (%) of ST (ratio of survival time of test and control animals)” value in series [2] (L1210, 10 mg/kg) is reported as over 197%; with S180 sarcoma cells (10 mg/kg) it was over 140%.

`N.N.O=C1[O][Pt][O]C(=O)C12CCC2` [reference compound] came in with a Solubility in series [1] of 18500 µg/mL.
